Experimental data reported in patent US20160002316A1, “SERPINS: METHODS OF THERAPEUTIC BETA-CELL REGENERATION AND FUNCTION” (SANOFI, priority 2013, published 2016).

Key:
[1] = tested on: primary mouse islets β-cells; assay: Mouse islets cultured with recombinant SerpinB1, ovalbumin or elastase inhibitors, Ki67 immunostaining; format: cell-based; settings: for mouse islet β-cell proliferation in vitro: Sivelestat (50 μg/ml) or GW311616A (100 μg/ml), FIG. 25 C
Procedure: Five to six-week old male mouse islets were cultured in the presence of different molecules for 48 h. Islet β-cell replication was assessed by Ki67 immunostaining studies. A) Representative images of islets stimulated with 100 or 1000 ng/ml of human recombinant SerpinB1. B) Quantification of Ki67+ insulin+ cells in islets stimulated with 1 to 1000 ng/ml of rSerpinB1 or 1000 ng/ml of ovalbumin (OVA). C) Representative images (left panel) and quantification (right panel) of Ki67+ insulin+ islet cells stimulated with Sivelestat (50 μg/ml) or GW311616A (100 μg/ml). D) Representative images of human islets stimulated for 24 hours with Sivelestat or GW311616A or control conditions.
To test whether SerpinB1 is a β-cell growth factor, we cultured freshly isolated primary mouse islets in presence of various doses of recombinant human SerpinB1 or ovalbumin (SerpinB14) and evaluated β-cell proliferation by Ki67 immunofluorescent staining (known to those of ordinary skill in the art).
To address whether SerpinB1 acts directly to stimulate β-cell proliferation, we cultured mouse islets in the presence of various doses of human recombinant SerpinB1 and a control (ovalbumin), and evaluated β-cell proliferation by Ki67 immunofluorescence staining (FIG. 21 A).
(§1) A major substrate of SerpinB1 is neutrophil elastase. To investigate whether the proliferative action of SerpinB1 is mediated by antagonizing neutrophil elastase activity, we assessed the ability of the neutrophil elastase inhibitor, Sivelestat (Sivelestat is the International Nonproprietary Name (INN) as given by the World Health Organization (WHO); the chemical name is: N-{2-[({4-[(2,2-dimethylpropanoyl)oxy]phenyl}sulfonyl)amino]benzoyl}glycine), to stimulate islet β-cell proliferation in vitro.

islet β-cells [2] = assay: Daily oral gavage of GW311616A for 2 weeks, β-cell mass and replication; format: in vivo, mouse; settings: 2 mg/kg/day
Procedure: (§2) Five to six-week old mice were administrated with Sivelestat or GW311616A for 2 weeks. Islet β-cell and α-cell replication was assessed by immunostaining. A) Schematic of the experimental protocol of Sivelestat administration. B) Quantification of pancreatic sections harvested from animals stimulated with Sivelestat and immunostained for insulin/BrdU/DAPI or glucagon/BrdU/DAPI. C) Schematic of the experimental protocol of GW311616A delivery. D) Quantification of pancreatic sections dissected from GW311616A-treated males and immunostained for insulin/BrdU/DAPI or glucagon/BrdU/DAPI.
Five to six-week old male mice were daily gavaged with GW311616A or vehicle (water) for 2 weeks. Mice were injected during the second week with BrdU (100 mg/kg Body weight) and sacrificed 5 hour after last injection of BrdU. Pancreases and other tissues were harvested for morphometric studies. A) Schematic of the experimental protocol of GW311616 administration. B) Pancreatic sections harvested from animals stimulated with GW311616 were immunostained for insulin/BrdU/DAPI (upper panel) or glucagon/BrdU/DAPI (lower panel). C) Quantification of β-cell mass. D) Quantification of insulin+BrdU+ cells. E) Quantification of glucagon+BrdU+ cells. F-G) Representative images and quantification of nuclei BrdU+ in liver, kidney, spleen, visceral and subcutaneous adipose tissue and skeletal muscle tissue.
To explore whether increased β-cell replication secondary to enhanced SerpinB1 activity can be recapitulated in vivo, we used pharmacological compounds Sivelestat (Kawabata, et al., 1991) and GW311616A (Macdonald, et al., 2001), that are selective inhibitors of elastase, one of the major substrates of SerpinB1. Using osmotic pumps, we delivered a continuous infusion of Sivelestat for a 2-week period followed by evaluating the number of replicating β-cells by BrdU incorporation (FIG. 20A). […] In a second approach we gavaged mice with the NE inhibitor, GW311616A, at a dose of 2 mg/kg/day for 2 weeks (FIG. 20C and FIG. 22 A). […] Moreover, cell proliferation was not increased in extra-pancreatic tissues including liver, skeletal muscle, visceral and subcutaneous adipose tissue, spleen and kidney (FIGS. 22 F & G).
For Sivelestat administration, mice were anesthetized, and osmotic pumps (ALZET) containing 100 μl of either vehicle or Sivelestat (Santa Cruz) were implanted subcutaneously. Sivelestat was dissolved in 50% DMSO and was administered at a dose of 150 or 300 μg/kg/day. Control mice were infused with DMSO 50% alone. GW311616A was administered into mice by daily oral gavage for two weeks. Mice received either GW311616A (2 mg/kg body weight) or vehicle.

human islet β cells = assay: Human islet studies, Ki67+ insulin+ cells; format: cell-based; settings: human islets, 24 hr
Procedure: Human islets were obtained from the Integrated Islet Distribution Program. All studies and protocols used were approved by the Joslin Diabetes Center's Committee on Human Studies (CHS#5-05). Upon arrival, islets were cultured overnight in Miami Media #1A (Cellgro). The islets were then starved in Final Wash/Culture Media (Cellgro, Manassas, Va.) for 3 hr prior to stimulation with serum (diluted to 10% v/v), LECM (diluted to 10% v/v), or HCM (diluted to 50% v/v) or Miami Media #1A supplemented with Sivelestat or GW311616A for 24 hr. Islets were used for immunostaining studies as described (El Ouaamari, et al., 2013).
Pancreases and islets were analyzed by immunostaining using anti-Ki67 (BD), anti-insulin (Abcam, Cambridge, Mass.), or anti-glucagon (Sigma-Aldrich, St. Louis, Mo.) antibodies. Quantification of replicating β- and α-cells was performed as described previously (El Ouaamari, et al., 2013).
In all experiments, cell counting was manually performed in a blinded fashion by a single observer. BrdU+ or Ki67+ β cells were assessed by immunofluorescence microscopy. Insulin+ cells showing nuclear DAPI staining were considered as β cells. Insulin+ cells showing nuclear colocalized staining for DAPI+ and Ki67+(or BrdU+) were counted as proliferating β cells. […]

islet β-cells [3] = assay: Continuous infusion of Sivelestat by osmotic pump for 2 weeks, β-cell replication; format: in vivo, mouse; settings: 2-week infusion
Procedure: as §2
Five to six-week old male mice were continuously infused for 2 weeks with vehicle or Sivelestat at 150 or 300 μg/kg/day. Mice were injected during the second week with BrdU (100 mg/kg Body weight) and sacrificed 5 hour after last injection of BrdU. Pancreases were harvested for morphometric studies. A-B) Representative images and quantification of nuclei BrdU+ in insulin+ cells. C-D) Representative images and quantification of nuclei pHH3+ in insulin+ cells. E-F) Representative images and quantification of nuclei BrdU+ in glucagon+ cells. […]

[4] = tested on: human (EndoC-βH1) β-cells; assay: EndoC-βH1 cells treated with Sivelestat, Ki67; format: cell-based; settings: 100 μg/ml
Description: as §1

Which results are given for `CC(C)[C@@H]1C(=O)N(S(C)(=O)=O)[C@@H]2CCN(C(=O)/C=C/CN3CCCCC3)[C@H]21.Cl` [GW311616A]?
mouse islet β-cell proliferation in vitro [1]: directly increased; cell proliferation in extra-pancreatic tissues (liver, skeletal muscle, visceral and subcutaneous adipose tissue, spleen, kidney) (islet β-cells [2]): not increased; α-cell proliferation by BrdU incorporation (islet β-cells [2]): not α-cell proliferation; β-cell mass (islet β-cells [2]): significantly enhanced β-cell mass; β-cell proliferation by BrdU incorporation (islet β-cells [2]): increased β-cell proliferation; number of replicating insulin-producing cells (Ki67+ insulin+) (human islet β cells): significantly higher

`CC(C)(C)C(=O)Oc1ccc(S(=O)(=O)Nc2ccccc2C(=O)NCC(=O)O)cc1` [Sivelestat, N-{2-[({4-[(2,2-dimethylpropanoyl)oxy]phenyl}sulfonyl)amino]benzoyl}glycine] was tested. Which “proliferation of glucagon-producing α-cells” value (islet β-cells [3]; 300 μg/kg/day) did it give?
The value was “did not significantly alter”.

What about the “effect on β-cells by pHH3 staining” value (islet β-cells [3]) of the same molecule?
Its value is “confirmed by pHH3 staining”.

And the “mouse islet β-cell proliferation in vitro” value [1]?
The value was “directly increased”.

What about the “number of proliferating insulin+ cells” value ([1]; higher doses, e.g. 10 and 50 μg/ml) of the same molecule?
The value was “substantial increase”.

And the β-cell proliferation ([1]; low doses 1 and 5 μg/ml)?
The β-cell proliferation was “do not enhance β-cell proliferation”.

What about the “number of replicating insulin-producing cells (Ki67+ insulin+)” value (human islet β cells) of the same molecule?
The value was “significantly higher”.

And the “number of Ki67 positive β-cells compared to non-treated cells” value [4]?
The value was “increased the number”.

B1: SerpinB1: recombinant human SerpinB1, serine peptidase inhibitor B1, 42 kD protein (protein)
chain: MEQLSSANTRFALDLFLALSENNPAGNIFISPFSISSAMAMVFLGTRGNTAAQLSKTFHFNTVEEVHSRFQSLNADINKRGASYILKLANRLYGEKTYNFLPEFLVSTQKTYGADLASVDFQHASEDARKTINQWVKGQTEGKIPELLASGMVDNMTKLVLVNAIYFKGNWKDKFMKEATTNAPFRLNKKDRKTVKMMYQKKKFAYGYIEDLKCRVLELPYQGEELSMVILLPDDIEDESTGLKKIEEQLTLEKLHEWTKPENLDFIEVNVSLPRFKLEESYTLNSDLARLGVQDLFNSSKADLSGMSGARDIFISKIVHKSFVEVNEEGTEAAAATAGIATFCMLMPEENFTADHPFLFFIRHNSSGSILFLGRFSSP
How did the “concentration at which the increase reached statistical significance” value ([1]; compared to ovalbumin at a similar concentration) turn out when B1 was run?
The value was 1 µg/mL.

And the “Ki67+ insulin+ cells” value ([1]; various doses (1 to 1000 ng/ml), 48 h)?
Its value is “dose-dependent increase”.

B2: ovalbumin: ovalbumin (SerpinB14), control protein (protein, UniProt P01012 2-386, looked up)
Ovalbumin: GSIGAASMEFCFDVFKELKVHHANENIFYCPIAIMSALAMVYLGAKDSTRTQINKVVRFDKLPGFGDSIEAQCGTSVNVHSSLRDILNQITKPNDVYSFSLASRLYAEERYPILPEYLQCVKELYRGGLEPINFQTAADQARELINSWVESQTNGIIRNVLQPSSVDSQTAMVLVNAIVFKGLWEKAFKDEDTQAMPFRVTEQESKPVQMMYQIGLFRVASMASEKMKILELPFASGTMSMLVLLPDEVSGLEQLESIINFEKLTEWTSSNVMEERKIKVYLPRMKMEEKYNLTSVLMAMGITDVFSSSANLSGISSAESLKISQAVHAAHAEINEAGREVVGSAEAGVDAASVSEEFRADHPFLFCIKHIATNAVLFFGRCVSP
B2 was tested. Which “β-cell proliferation (Ki67)” value ([1]; 1 μg/ml) did it give?
The value was “normal low β-cell proliferation”.
